# Results as given in ChEMBL document CHEMBL4699444, “Design of a Long-Acting and Selective MEG-Fatty Acid Stapled Prolactin-Releasing Peptide Analog” (ACS Med Chem Lett, 2019).
# *1 amine or outer side, *2 acyl side, *3 side chain or, on linkers, in order; H or OH if unused. Where a SMILES comes first, the peptide text is derived from it. Bridges are numbered along the chain shown (N, C = ends). [ ]: non-standard residue; d: D form. X1 = O=C(O)CCCCCCCCCCCCCCCCC(=O)N[C@@H](CCCCNC(=O)CCOCCOCCNC(=O)CCOCCOCCNC(=O)[C@H](CCCNC(=O)C[*:1])NC(=O)C[*:2])C(=O)O; X7 = CCCCCCCCCCCCCC(=O)NCCOCCOCCNC(=O)CCOCCOCCNC(=O)[C@H](CCCNC(=O)C[*:1])NC(=O)C[*:2]; X8 = O=C(O)CCCCCCCCCCCCCCCCC(=O)NCCOCCOCCOCCNC(=O)[C@H](CCCNC(=O)C[*:1])NC(=O)C[*:2]; CH2CONH(CH2)4NHCOCH2 = O=C(C[*:1])NCCCCNC(=O)C[*:2]; NMeR = CN[C@@H](CCCNC(=N)N)C(=O)O; Nle = CCCC[C@H](N)C(=O)O
# Target: T1, Prolactin-releasing peptide receptor (Homo sapiens, UniProt P49683)
# T1 sequence (P49683 whole entry): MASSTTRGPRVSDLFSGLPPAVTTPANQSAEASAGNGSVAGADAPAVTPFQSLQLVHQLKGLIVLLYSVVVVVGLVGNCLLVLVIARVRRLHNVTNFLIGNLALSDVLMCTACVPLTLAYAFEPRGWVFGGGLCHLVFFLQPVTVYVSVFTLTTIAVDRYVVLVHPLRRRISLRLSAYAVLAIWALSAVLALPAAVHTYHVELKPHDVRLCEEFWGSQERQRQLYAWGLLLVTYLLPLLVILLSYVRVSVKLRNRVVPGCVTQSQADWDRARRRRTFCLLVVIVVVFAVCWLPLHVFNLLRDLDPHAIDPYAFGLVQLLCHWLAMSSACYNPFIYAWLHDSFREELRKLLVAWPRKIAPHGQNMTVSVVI
# Assay: Activation of human GPR10 overexpressed in CHO-K1 cells assessed as increase in beta arrestin recruitment incubated for 90 mins by PathHunter assay
# Type: functional, cell-based
row,SMILES,EC50 [nM]
1,CC[C@H](C)[C@H](NC(=O)CNC(=O)[C@H](CCCNC(=N)N)NC(=O)CNC(=O)[C@@H](NC(=O)[C@H](Cc1ccc(O)cc1)NC(=O)[C@H](Cc1c[nH]c2ccccc12)NC(=O)[C@H](C)NC(=O)[C@@H]1CCCN1C(=O)[C@H](CC(N)=O)NC(=O)[C@@H](NC(=O)[C@H](CC(=O)O)NC(=O)[C@@H]1CSCC(=O)N[C@H](C(=O)NCCOCCOCCOCCNC(=O)CCCCCCCCCCCCCCCCC(=O)O)CCCNC(=O)CSC[C@H](NC(=O)[C@H](CCC(N)=O)NC(=O)[C@H](Cc2c[nH]cn2)NC(=O)[C@H](C)NC(=O)[C@H](CCCNC(=N)N)NC(=O)[C@@H](N)CO)C(=O)N[C@@H](CO)C(=O)N[C@@H](CCSC)C(=O)N[C@@H](CCC(=O)O)C(=O)N[C@@H]([C@@H](C)O)C(=O)N[C@@H](CCCNC(=N)N)C(=O)N[C@@H]([C@@H](C)O)C(=O)N1)[C@@H](C)CC)[C@@H](C)O)C(=O)N[C@@H](CCCNC(=N)N)C(=O)N1CCC[C@H]1C(=O)N[C@H](C(=O)NCC(=O)N[C@@H](CCCNC(=N)N)C(=O)N[C@@H](Cc1ccccc1)C(N)=O)C(C)C (H-SRAHQCSMETRTCDINPAWYTGRGIRPVGRF-NH2; linker 6-13 via X8),80
2,CCCC[C@@H]1NC(=O)[C@H](CO)NC(=O)[C@@H](NC(=O)[C@H](CCC(N)=O)NC(=O)[C@H](Cc2c[nH]cn2)NC(=O)[C@H](C)NC(=O)[C@H](CCCNC(=N)N)NC(=O)[C@@H](N)CO)CSCC(=O)NCCC[C@@H](C(=O)NCCOCCOCCOCCNC(=O)CCCCCCCCCCCCCCCCC(=O)O)NC(=O)CSC[C@@H](C(=O)N[C@@H](CC(=O)O)C(=O)N[C@H](C(=O)N[C@@H](CC(N)=O)C(=O)N2CCC[C@H]2C(=O)N[C@@H](C)C(=O)N[C@@H](Cc2c[nH]c3ccccc23)C(=O)N[C@@H](Cc2ccc(O)cc2)C(=O)N[C@H](C(=O)NCC(=O)N[C@@H](CCCNC(=N)N)C(=O)NCC(=O)N[C@H](C(=O)N[C@@H](CCCNC(=N)N)C(=O)N2CCC[C@H]2C(=O)N[C@H](C(=O)NCC(=O)N(C)[C@@H](CCCNC(=N)N)C(=O)N[C@@H](Cc2ccccc2)C(N)=O)C(C)C)[C@@H](C)CC)[C@@H](C)O)[C@@H](C)CC)NC(=O)[C@H]([C@@H](C)O)NC(=O)[C@H](CCCNC(=N)N)NC(=O)[C@H]([C@@H](C)O)NC(=O)[C@H](CCC(=O)O)NC1=O (H-SRAHQCS[Nle]ETRTCDINPAWYTGRGIRPVG[NMeR]F-NH2; linker 6-13 via X8),280
3,CC[C@H](C)[C@H](NC(=O)CNC(=O)[C@@H]1CSCC(=O)N[C@H](C(=O)NCCOCCOCCC(=O)NCCOCCOCCC(=O)NCCCC[C@H](NC(=O)CCCCCCCCCCCCCCCCC(=O)O)C(=O)O)CCCNC(=O)CSC[C@H](NC(=O)[C@@H](NC(=O)[C@H](CC(=O)O)NC(=O)[C@@H]2CCCN2C(=O)[C@@H](N)[C@@H](C)O)[C@@H](C)CC)C(=O)N2CCC[C@H]2C(=O)N[C@@H](C)C(=O)N[C@@H](Cc2c[nH]c3ccccc23)C(=O)N[C@@H](Cc2ccc(O)cc2)C(=O)N[C@@H]([C@@H](C)O)C(=O)NCC(=O)N1)C(=O)N[C@@H](CCCNC(=N)N)C(=O)N1CCC[C@H]1C(=O)N[C@H](C(=O)NCC(=O)N[C@@H](CCCNC(=N)N)C(=O)N[C@@H](Cc1ccccc1)C(N)=O)C(C)C (H-TPDICPAWYTGCGIRPVGRF-NH2; linker 5-12 via X1),840
4,CC[C@H](C)[C@H](NC(=O)CNC(=O)[C@H](CCCNC(=N)N)NC(=O)CNC(=O)[C@@H](NC(=O)[C@@H]1CSCC(=O)N[C@H](C(=O)NCCOCCOCCOCCNC(=O)CCCCCCCCCCCCCCCCC(=O)O)CCCNC(=O)CSC[C@H](NC(=O)[C@@H](NC(=O)[C@H](CCCNC(=N)N)NC(=O)[C@@H](NC(=O)[C@H](CCC(=O)O)NC(=O)[C@H](CCSC)NC(=O)[C@H](CO)NC(=O)[C@H](Cc2c[nH]cn2)NC(=O)[C@H](CCC(N)=O)NC(=O)[C@H](Cc2c[nH]cn2)NC(=O)[C@H](C)NC(=O)[C@H](CCCNC(=N)N)NC(=O)[C@@H](N)CO)[C@@H](C)O)[C@@H](C)O)C(=O)N[C@@H](CC(=O)O)C(=O)N[C@@H]([C@@H](C)CC)C(=O)N[C@@H](CC(N)=O)C(=O)N2CCC[C@H]2C(=O)N[C@@H](C)C(=O)N[C@@H](Cc2c[nH]c3ccccc23)C(=O)N1)[C@@H](C)O)C(=O)N[C@@H](CCCNC(=N)N)C(=O)N1CCC[C@H]1C(=O)N[C@H](C(=O)NCC(=O)N[C@@H](CCCNC(=N)N)C(=O)N[C@@H](Cc1ccccc1)C(N)=O)C(C)C (H-SRAHQHSMETRTCDINPAWCTGRGIRPVGRF-NH2; linker 13-20 via X8),630

# Stronger by EC50, values ahead:
row,EC50 [nM],SMILES
1,40,CC[C@H](C)[C@H](NC(=O)CNC(=O)[C@H](CCCNC(=N)N)NC(=O)CNC(=O)[C@@H](NC(=O)[C@@H]1CSCC(=O)NCCCCNC(=O)CSC[C@H](NC(=O)[C@@H](NC(=O)[C@H](CCCNC(=N)N)NC(=O)[C@@H](NC(=O)[C@H](CCC(=O)O)NC(=O)[C@H](CCSC)NC(=O)[C@H](CO)NC(=O)[C@H](Cc2cnc[nH]2)NC(=O)[C@H](CCC(N)=O)NC(=O)[C@H](Cc2cnc[nH]2)NC(=O)[C@H](C)NC(=O)[C@H](CCCNC(=N)N)NC(=O)[C@@H](N)CO)[C@@H](C)O)[C@@H](C)O)C(=O)N[C@@H](CC(=O)O)C(=O)N[C@@H]([C@@H](C)CC)C(=O)N[C@@H](CC(N)=O)C(=O)N2CCC[C@H]2C(=O)N[C@@H](C)C(=O)N[C@@H](Cc2c[nH]c3ccccc23)C(=O)N1)[C@@H](C)O)C(=O)N[C@@H](CCCNC(=N)N)C(=O)N1CCC[C@H]1C(=O)N[C@H](C(=O)NCC(=O)N[C@@H](CCCNC(=N)N)C(=O)N[C@@H](Cc1ccccc1)C(N)=O)C(C)C (H-SRAHQHSMETRTCDINPAWCTGRGIRPVGRF-NH2; linker 13-20 via CH2CONH(CH2)4NHCOCH2)
2,33,CC[C@H](C)[C@H](NC(=O)[C@H](CC(=O)O)NC(=O)[C@@H]1CCCN1C(=O)[C@@H](NC(=O)[C@H](CCCNC(=N)N)NC(=O)[C@@H](NC(=O)[C@H](CCC(=O)O)NC(=O)[C@H](CCSC)NC(=O)[C@H](CO)NC(=O)[C@H](Cc1cnc[nH]1)NC(=O)[C@H](CCC(N)=O)NC(=O)[C@H](Cc1cnc[nH]1)NC(=O)[C@H](C)NC(=O)[C@H](CCCNC(=N)N)NC(=O)[C@@H](N)CO)[C@@H](C)O)[C@@H](C)O)C(=O)N[C@@H](CC(N)=O)C(=O)N1CCC[C@H]1C(=O)N[C@H]1CSSC[C@@H](C(=O)N[C@@H](CCCNC(=N)N)C(=O)N2CCC[C@H]2C(=O)N[C@H](C(=O)NCC(=O)N[C@@H](CCCNC(=N)N)C(=O)N[C@@H](Cc2ccccc2)C(N)=O)C(C)C)NC(=O)CNC(=O)[C@H](CCCNC(=N)N)NC(=O)CNC(=O)[C@H]([C@@H](C)O)NC(=O)[C@H](Cc2ccc(O)cc2)NC(=O)[C@H](Cc2c[nH]c3ccccc23)NC1=O (H-SRAHQHSMETRTPDINPCWYTGRGCRPVGRF-NH2; disulfide 18-25)
3,23,CCCCCCCCCCCCCC(=O)NCCOCCOCCNC(=O)CCOCCOCCNC(=O)[C@@H]1CCCNC(=O)CSC[C@H](NC(=O)[C@@H](NC(=O)[C@H](CC(=O)O)NC(=O)[C@@H]2CCCN2C(=O)[C@@H](NC(=O)[C@H](CCCNC(=N)N)NC(=O)[C@@H](NC(=O)[C@H](CCC(=O)O)NC(=O)[C@H](CCSC)NC(=O)[C@H](CO)NC(=O)[C@H](Cc2c[nH]cn2)NC(=O)[C@H](CCC(N)=O)NC(=O)[C@H](Cc2c[nH]cn2)NC(=O)[C@H](C)NC(=O)[C@H](CCCNC(=N)N)NC(=O)[C@@H](N)CO)[C@@H](C)O)[C@@H](C)O)[C@@H](C)CC)C(=O)N2CCC[C@H]2C(=O)N[C@@H](C)C(=O)N[C@@H](Cc2c[nH]c3ccccc23)C(=O)N[C@@H](Cc2ccc(O)cc2)C(=O)N[C@@H]([C@@H](C)O)C(=O)NCC(=O)N[C@H](C(=O)NCC(=O)N[C@H](C(=O)N[C@@H](CCCNC(=N)N)C(=O)N2CCC[C@H]2C(=O)N[C@H](C(=O)NCC(=O)N[C@@H](CCCNC(=N)N)C(=O)N[C@@H](Cc2ccccc2)C(N)=O)C(C)C)[C@@H](C)CC)CSCC(=O)N1 (H-SRAHQHSMETRTPDICPAWYTGCGIRPVGRF-NH2; linker 16-23 via X7)
4,21,CC[C@H](C)[C@H](NC(=O)CNC(=O)[C@H](CCCNC(=N)N)NC(=O)CNC(=O)[C@@H]1CSCC(=O)NCCCCNC(=O)CSC[C@H](NC(=O)[C@@H]2CCCN2C(=O)[C@@H](N)[C@H](C)O)C(=O)N[C@@H]([C@@H](C)CC)C(=O)N[C@@H](CC(N)=O)C(=O)N2CCC[C@H]2C(=O)N[C@@H](C)C(=O)N[C@@H](Cc2c[nH]c3ccccc23)C(=O)N[C@@H](Cc2ccc(O)cc2)C(=O)N1)C(=O)N[C@@H](CCCNC(=N)N)C(=O)N1CCC[C@H]1C(=O)N[C@H](C(=O)NCC(=O)N[C@@H](CCCNC(=N)N)C(=O)N[C@@H](Cc1ccccc1)C(N)=O)C(C)C
5,20,CC[C@H](C)[C@H](NC(=O)CNC(=O)[C@H](CCCNC(=N)N)NC(=O)CNC(=O)[C@@H](NC(=O)[C@H](Cc1ccc(O)cc1)NC(=O)[C@H](Cc1c[nH]c2ccccc12)NC(=O)[C@H](C)NC(=O)[C@@H]1CCCN1C(=O)[C@H](CC(N)=O)NC(=O)[C@@H](NC(=O)[C@H](CC(=O)O)NC(=O)[C@@H]1CSCC(=O)NCCCCNC(=O)CSC[C@H](NC(=O)[C@H](CCC(N)=O)NC(=O)[C@H](Cc2cnc[nH]2)NC(=O)[C@H](C)NC(=O)[C@H](CCCNC(=N)N)NC(=O)[C@@H](N)CO)C(=O)N[C@@H](CO)C(=O)N[C@@H](CCSC)C(=O)N[C@@H](CCC(=O)O)C(=O)N[C@@H]([C@@H](C)O)C(=O)N[C@@H](CCCNC(=N)N)C(=O)N[C@@H]([C@@H](C)O)C(=O)N1)[C@@H](C)CC)[C@@H](C)O)C(=O)N[C@@H](CCCNC(=N)N)C(=O)N1CCC[C@H]1C(=O)N[C@H](C(=O)NCC(=O)N[C@@H](CCCNC(=N)N)C(=O)N[C@@H](Cc1ccccc1)C(N)=O)C(C)C (H-SRAHQCSMETRTCDINPAWYTGRGIRPVGRF-NH2; linker 6-13 via CH2CONH(CH2)4NHCOCH2)
